In patent US12371454B2, “Cyclic peptide compound having Kras inhibitory action” (priority 2019, dated 2025):
Starred links: 1 amine or outer side, 2 acyl side, 3 side chain; linkers in the order of their positions; H or OH if unused. Positions of bridges follow the written chain, without caps; N, C: chain ends. Non-standard residues stand in square brackets, D forms with d. Residues, ends and D or L forms follow the SMILES beside them. *: point of attachment. hPhe(3-Cl-4-CF3) = N[C@@H](CCc1ccc(C(F)(F)F)c(Cl)c1)C(=O)O; NMePhe(4-CF3) = CN[C@@H](Cc1ccc(C(F)(F)F)cc1)C(=O)O; NMePhe(4-Cl) = CN[C@@H](Cc1ccc(Cl)cc1)C(=O)O; NMePhe(4-Me) = CN[C@@H](Cc1ccc(C)cc1)C(=O)O; NMedβ3hAla = C[C@H](CC(=O)[*:2])N(C)[*:1]; NMeGly(cPent) = CN[C@H](C(=O)O)C1CCCC1; NMeCha = CN[C@@H](CC1CCCCC1)C(=O)O; Hyp = O=C(O)[C@@H]1C[C@@H](O)CN1; NMeCba = CN[C@@H](CC1CCC1)C(=O)O; NMeChg = CN[C@H](C(=O)O)C1CCCCC1; NMeI = CC[C@H](C)[C@H](NC)C(=O)O; NMeD = CN[C@@H](CC(=O)O)C(=O)O; NMeL = CN[C@@H](CC(C)C)C(=O)O; NMeNle = CCCC[C@H](NC)C(=O)O; NMeV = CN[C@H](C(=O)O)C(C)C; d(β3hA) = C[C@@H](N)CC(=O)O; NMeA = CN[C@@H](C)C(=O)O; Piperidide = C1CCN(*)CC1; Pyrrolidide = C1CCN(*)C1; Ac5c = NC1(C(=O)O)CCCC1; Aze = O=C(O)[C@@H]1CCN1; NEtG = CCNCC(=O)O; X36 = c1cc(C*)cs1; Sar = CNCC(=O)O

Tested on: Human pancreatic cancer cell line AsPC-1
Test: Measurement of AsPC-1 cell growth inhibition (AsPC-1 CGI)
Type: cell-based
Details: 96 h
Procedure, shortened: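 AsPC-1 cells in 15% FBS RPMI-1640 were exposed to test compound for 96 hours at 37° C, with CellTiter-Glo as endpoint.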

**Q.** `CC[C@H](C)[C@@H]1NC(=O)[C@H](CC2CCC2)N(C)C(=O)C[C@@H](C)NC(=O)[C@H](C(C)C)N(C)C(=O)C2(CCCC2)NC(=O)[C@@H]2CCCN2C(=O)[C@H](CCc2ccc(C(F)(F)F)c(Cl)c2)NC(=O)CN(C)C(=O)[C@H](CC2CCCCC2)N(C)C(=O)[C@@H]2CCN2C(=O)[C@H](C)N(C)C1=O` [Compound 455] (cyclo([Ac5c][NMeV][d(β3hA)][NMeCba]I[NMeA][Aze][NMeCha][Sar][hPhe(3-Cl-4-CF3)]P)) was tested. Which IC50 did it give?
**A.** The IC50 was 100 to 500 nM.

**Q.** With `CCCC[C@H]1C(=O)N(C)CC(=O)N[C@@H](CCc2ccc(C(F)(F)F)c(Cl)c2)C(=O)N2CCC[C@H]2C(=O)NC2(CCCC2)C(=O)N(C)[C@@H](C(C)C)C(=O)N(C)[C@H](C(=O)N2CCCCC2)CC(=O)N(C)[C@@H](CC(C)C)C(=O)N[C@@H]([C@@H](C)CC)C(=O)N(C)[C@@H](C)C(=O)N2CC[C@H]2C(=O)N1C` [Compound 1712] ([NMeL]I[NMeA][Aze][NMeNle][Sar][hPhe(3-Cl-4-CF3)]P[Ac5c][NMeV][NMeD]-Piperidide; lactam N-11) as the compound, how does the IC50 read?
**A.** Its IC50 is 100 to 500 nM.

**Q.** Which IC50 does the source give for `CC[C@H](C)[C@@H]1NC(=O)[C@H](CC(C)C)N(C)C(=O)C[C@@H](C(=O)N2CCCCC2)N(C)C(=O)[C@H]([C@@H](C)CC)N(C)C(=O)C2(CCCC2)NC(=O)[C@@H]2CCCN2C(=O)[C@H](CCc2ccc(C(F)(F)F)c(Cl)c2)NC(=O)CN(C)C(=O)[C@H](Cc2ccc(C)cc2)N(C)C(=O)[C@@H]2CCN2C(=O)[C@H](C)N(C)C1=O` [Compound 1727] ([NMeL]I[NMeA][Aze][NMePhe(4-Me)][Sar][hPhe(3-Cl-4-CF3)]P[Ac5c][NMeI][NMeD]-Piperidide; lactam N-11) here?
**A.** Its IC50 is 20 to 50 nM.

**Q.** For `CC[C@H](C)[C@@H]1NC(=O)[C@H](CC(C)C)N(C)C(=O)C[C@@H](C(=O)N2CCCCC2)N(C)C(=O)[C@H](C2CCCCC2)N(C)C(=O)C2(CCCC2)NC(=O)[C@@H]2C[C@@H](OCc3ccsc3)CN2C(=O)[C@H](CCc2ccc(C(F)(F)F)c(Cl)c2)NC(=O)CN(C)C(=O)[C@H](CC2CCCCC2)N(C)C(=O)CN(C)C(=O)CN(C)C1=O` [Compound 2124] ([NMeL]I[Sar][Sar][NMeCha][Sar][hPhe(3-Cl-4-CF3)][Hyp](X36)[Ac5c][NMeChg][NMeD]-Piperidide; lactam N-11), which IC50 is on record?
**A.** Its IC50 is 100 to 500 nM.

**Q.** With `CCO[C@@H]1C[C@H]2C(=O)NC3(CCCC3)C(=O)N(C)[C@@H](C3CCCCC3)C(=O)N(C)[C@H](C)CC(=O)N(C)[C@@H](CC(C)C)C(=O)N[C@@H]([C@@H](C)CC)C(=O)N(C)[C@@H](C)C(=O)N3CC[C@H]3C(=O)N(C)[C@@H](Cc3ccc(C(F)(F)F)cc3)C(=O)N(C)CC(=O)N[C@@H](CCc3ccc(C(F)(F)F)c(Cl)c3)C(=O)N2C1` [Compound 652] (cyclo([Ac5c][NMeChg][NMedβ3hAla][NMeL]I[NMeA][Aze][NMePhe(4-CF3)][Sar][hPhe(3-Cl-4-CF3)][Hyp](Et))) as the compound, how does the IC50 read?
**A.** The IC50 was 50 to 100 nM.

**Q.** `CC[C@H](C)[C@@H]1NC(=O)[C@H](CC(C)C)N(C)C(=O)C[C@@H](C(=O)N2CCCC2)N(C)C(=O)[C@H]([C@@H](C)CC)N(C)C(=O)C2(CCCC2)NC(=O)[C@@H]2CCCN2C(=O)[C@H](CCc2ccc(C(F)(F)F)c(Cl)c2)NC(=O)CN(CC)C(=O)[C@H](Cc2ccc(C(F)(F)F)cc2)N(C)C(=O)[C@@H]2CCN2C(=O)[C@H](C)N(C)C1=O` [Compound 1159] ([NMeL]I[NMeA][Aze][NMePhe(4-CF3)][NEtG][hPhe(3-Cl-4-CF3)]P[Ac5c][NMeI][NMeD]-Pyrrolidide; lactam N-11) was tested. Which IC50 did it give?
**A.** The IC50 was 20 to 50 nM.

**Q.** With `CC[C@H](C)[C@@H]1NC(=O)[C@H](CC(C)C)N(C)C(=O)C[C@@H](C)NC(=O)[C@H](C2CCCC2)N(C)C(=O)C2(CCCC2)NC(=O)[C@@H]2CCCN2C(=O)[C@H](CCc2ccc(C(F)(F)F)c(Cl)c2)NC(=O)CN(C)C(=O)[C@H](Cc2ccc(C(F)(F)F)cc2)N(C)C(=O)[C@@H]2CCN2C(=O)[C@H](C)N(C)C1=O` [Compound 1475] (cyclo([Ac5c][NMeGly(cPent)][d(β3hA)][NMeL]I[NMeA][Aze][NMePhe(4-CF3)][Sar][hPhe(3-Cl-4-CF3)]P)) as the compound, how does the IC50 read?
**A.** The IC50 was 50 to 100 nM.

**Q.** With `CC[C@H](C)[C@@H]1NC(=O)[C@H](CC(C)C)N(C)C(=O)C[C@@H](C)N(C)C(=O)[C@H]([C@@H](C)CC)N(C)C(=O)C2(CCCC2)NC(=O)[C@@H]2CCCN2C(=O)[C@H](CCc2ccc(C(F)(F)F)c(Cl)c2)NC(=O)CN(C)C(=O)[C@H](C2CCCC2)N(C)C(=O)[C@@H]2CCN2C(=O)[C@H](C)N(C)C1=O` [Compound 79] (cyclo([Ac5c][NMeI][NMedβ3hAla][NMeL]I[NMeA][Aze][NMeGly(cPent)][Sar][hPhe(3-Cl-4-CF3)]P)) as the compound, how does the IC50 read?
**A.** Its IC50 is 20 to 50 nM.

**Q.** With `CC[C@H](C)[C@@H]1NC(=O)[C@H](CC(C)C)N(C)C(=O)C[C@@H](C(=O)N2CCCCC2)N(C)C(=O)[C@H](C(C)C)N(C)C(=O)C2(CCCC2)NC(=O)[C@@H]2CCCN2C(=O)[C@H](CCc2ccc(C(F)(F)F)c(Cl)c2)NC(=O)CN(C)C(=O)[C@H](Cc2ccc(Cl)cc2)N(C)C(=O)[C@@H]2CCN2C(=O)[C@H](C)N(C)C1=O` [Compound 680] ([NMeL]I[NMeA][Aze][NMePhe(4-Cl)][Sar][hPhe(3-Cl-4-CF3)]P[Ac5c][NMeV][NMeD]-Piperidide; lactam N-11) as the compound, how does the IC50 read?
**A.** The IC50 was 100 to 500 nM.
